pIC50: −log10 of the molar value. *1 amine or outer side, *2 acyl side, *3 side chain or, on linkers, in order; H or OH if unused. Where a SMILES comes first, the peptide text is derived from it. Bridges are numbered along the chain shown (N, C = ends). [ ]: non-standard residue; d: D form. Cys(O)(CH2CO) = O=C([C@H](C[S+]([O-])CC(=O)[*:3])N[*:1])[*:2]; Aad = N[C@@H](CCCC(=O)O)C(=O)O; Pen = CC(C)(S)[C@H](N)C(=O)O; dOrn = NCCC[C@@H](N)C(=O)O

Sequence of human platelet rich plasma (PRP) (P08514 32-1039): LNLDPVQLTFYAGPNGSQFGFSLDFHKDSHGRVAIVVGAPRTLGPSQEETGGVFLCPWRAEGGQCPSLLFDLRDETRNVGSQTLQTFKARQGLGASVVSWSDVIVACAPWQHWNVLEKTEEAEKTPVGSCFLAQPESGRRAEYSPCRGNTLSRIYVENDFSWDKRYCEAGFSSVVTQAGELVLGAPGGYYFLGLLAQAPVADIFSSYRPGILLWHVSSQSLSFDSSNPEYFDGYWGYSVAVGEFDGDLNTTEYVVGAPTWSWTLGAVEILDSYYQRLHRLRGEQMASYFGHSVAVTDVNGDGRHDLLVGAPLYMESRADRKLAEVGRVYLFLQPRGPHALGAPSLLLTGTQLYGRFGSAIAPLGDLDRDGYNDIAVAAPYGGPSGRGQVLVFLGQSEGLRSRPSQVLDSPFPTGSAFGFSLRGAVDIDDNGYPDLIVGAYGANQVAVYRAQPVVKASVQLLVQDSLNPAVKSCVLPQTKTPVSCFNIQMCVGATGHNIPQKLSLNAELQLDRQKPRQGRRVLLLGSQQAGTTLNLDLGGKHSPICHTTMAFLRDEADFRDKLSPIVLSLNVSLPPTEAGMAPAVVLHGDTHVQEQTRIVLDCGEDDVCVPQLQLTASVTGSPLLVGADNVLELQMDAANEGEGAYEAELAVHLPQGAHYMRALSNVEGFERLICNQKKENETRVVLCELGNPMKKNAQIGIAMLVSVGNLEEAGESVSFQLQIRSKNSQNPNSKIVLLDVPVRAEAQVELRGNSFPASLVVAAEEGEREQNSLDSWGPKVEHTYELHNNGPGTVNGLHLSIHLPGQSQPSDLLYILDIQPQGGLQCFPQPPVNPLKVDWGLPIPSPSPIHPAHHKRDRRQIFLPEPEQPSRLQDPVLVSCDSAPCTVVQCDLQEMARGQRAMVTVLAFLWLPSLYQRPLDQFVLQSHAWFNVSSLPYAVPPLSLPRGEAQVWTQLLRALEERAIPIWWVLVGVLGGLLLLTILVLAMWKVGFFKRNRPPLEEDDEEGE
Sequence of human platelet rich plasma (PRP) (P05106 27-788): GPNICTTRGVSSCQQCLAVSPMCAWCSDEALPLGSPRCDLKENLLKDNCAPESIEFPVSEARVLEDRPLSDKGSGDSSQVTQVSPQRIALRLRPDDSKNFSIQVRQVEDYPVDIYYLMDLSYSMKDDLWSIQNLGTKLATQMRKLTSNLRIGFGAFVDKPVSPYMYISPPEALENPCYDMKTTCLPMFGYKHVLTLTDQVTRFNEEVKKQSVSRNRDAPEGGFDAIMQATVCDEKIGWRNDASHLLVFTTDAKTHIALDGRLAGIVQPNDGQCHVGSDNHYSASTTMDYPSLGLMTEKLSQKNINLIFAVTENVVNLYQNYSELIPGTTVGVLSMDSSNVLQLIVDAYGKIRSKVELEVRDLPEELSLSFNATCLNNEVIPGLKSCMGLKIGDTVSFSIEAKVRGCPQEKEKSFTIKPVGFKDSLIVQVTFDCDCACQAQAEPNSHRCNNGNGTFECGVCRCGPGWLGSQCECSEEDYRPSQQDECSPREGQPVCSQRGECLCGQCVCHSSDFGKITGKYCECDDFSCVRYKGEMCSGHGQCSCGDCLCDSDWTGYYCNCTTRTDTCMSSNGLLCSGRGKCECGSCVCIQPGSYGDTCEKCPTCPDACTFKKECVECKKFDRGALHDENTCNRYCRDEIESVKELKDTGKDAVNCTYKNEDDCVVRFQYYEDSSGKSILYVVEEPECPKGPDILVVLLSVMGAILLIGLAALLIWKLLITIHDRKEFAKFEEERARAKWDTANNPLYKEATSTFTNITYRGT

One series concerns New Zealand White rabbits. Briefly: Rabbit peripheral blood flow (PBF) by observation of ear vessels. The class given is in vivo. On the set-up: key to PBF: NORMAL: Normal flow is defined as ears that appear pink to red, with no visible constriction of the major blood vessels; Decreased flow applies to ears that have constricted vessels resulting in cold, pallid ears for up to 40 minutes following the start of the inhibitor infusion. Conditions: rabbit, i.v. bolus 0.5 mg/kg + 0.012 mg/kg infused over 60 minutes; measured visually. Here is the method:
Catheters are flushed and locked after every sample.
For the experiments summarized in Table 1, PBF was monitored by observation of the condition of the blood vessels in the rabbits' ears, prior to and during the infusion. Normal flow is defined as ears that appear pink to red, with no visible constriction of the major blood vessels. Decreased flow applies to ears that have constricted vessels resulting in cold, pallid ears for up to 40 minutes following the start of the inhibitor infusion.
Regarding `N=C(N)NCCC[C@H](NC(=O)[C@@H]1C[S+]([O-])CC(=O)N[C@H](Cc2ccc(O)cc2)C(=O)N[C@@H](CCCNC(=N)N)C(=O)NCC(=O)N[C@@H](CC(=O)O)C(=O)N1)C(N)=O` (single isomer, unassigned) [drawing 33], the PBF result is given as “NORMAL”.

Still in this series, the particulars now being: rabbit, i.v. bolus 1.5 mg/kg + 0.036 mg/kg infused over 60 minutes; measured visually.
As to `N=C(N)NCCC[C@@H]1NC(=O)[C@@H](Cc2ccc(O)cc2)NC(=O)[C@@H](CCCNC(=N)N)SC[C@@H](C(=O)O)NC(=O)[C@H](CC(=O)O)NC(=O)CNC1=O`, the PBF entry is reported as “NORMAL”.

Take `N=C(N)NCCC[C@@H]1NC(=O)[C@@H](Cc2ccc(O)cc2)NC(=O)[C@H](CCCNC(=N)N)SC[C@@H](C(=O)O)NC(=O)[C@H](CC(=O)O)NC(=O)CNC1=O`: the PBF entry is given as “NORMAL”.

`N=C(N)NCCC[C@@H]1NC(=O)[C@@H](Cc2ccc(O)cc2)NC(=O)C[S+]([O-])C[C@@H](C(=O)N[C@@H](CCCN)C(N)=O)NC(=O)[C@H](CC(=O)O)NC(=O)CNC1=O` (stereo partly drawn): the PBF entry is “NORMAL”.

On to `NCCCC[C@@H]1NC(=O)[C@@H](Cc2ccc(O)cc2)NC(=O)C(c2ccccc2)SC[C@@H](C(=O)O)NC(=O)[C@H](CC(=O)O)NC(=O)CNC1=O` (single isomer, unassigned) [drawing 13], for which the PBF result is “NORMAL”.

Consider `N=C(N)NCCC[C@@H]1NC(=O)[C@@H](Cc2ccc(O)cc2)NC(=O)C(CCCCN)SC[C@@H](C(=O)O)NC(=O)[C@H](CC(=O)O)NC(=O)CNC1=O` (single isomer, unassigned) [drawing 22], for which the PBF entry is listed as “NORMAL”.

Take `N=C(N)NCCC[C@@H]1NC(=O)[C@@H](Cc2ccc(O)cc2)NC(=O)C(CCCCN)SC[C@@H](C(=O)O)NC(=O)[C@H](CC(=O)O)NC(=O)CNC1=O` (single isomer, unassigned) [drawing 23]: the PBF entry is recorded as “NORMAL”.

Turning to `N=C(N)NCCC[C@H](NC(=O)[C@@H]1C[S+]([O-])CC(=O)N[C@H](Cc2ccc(O)cc2)C(=O)N[C@@H](CCCNC(=N)N)C(=O)NCC(=O)N[C@@H](CC(=O)O)C(=O)N1)C(N)=O` (single isomer, unassigned) [drawing 34], the PBF entry is on record as “NORMAL”.

As to `CC1(C)SCC(=O)N[C@H](Cc2ccc(O)cc2)C(=O)N[C@@H](CCCCN)C(=O)NCC(=O)N[C@@H](CC(=O)O)C(=O)N[C@@H]1C(=O)O` [drawing 9] ({CH2CO}-[dY]KGD[Pen]-OH; thioether N-5), the PBF result is recorded as “NORMAL”.

For `N=C(N)NCCC[C@H](NC(=O)[C@@H]1CSCC(=O)N[C@H](Cc2ccc(O)cc2)C(=O)N[C@@H](CCCNC(=N)N)C(=O)NCC(=O)N[C@@H](CC(=O)O)C(=O)N1)C(N)=O` [drawing 15] ({CH2CO}-[dY]RGDCR-NH2; thioether N-5), the PBF result is on record as “NORMAL”.

Regarding `N=C(N)NCCC[C@@H]1NC(=O)[C@@H](Cc2ccc(O)cc2)NC(=O)CSC[C@@H](C(=O)N[C@H](CCCN)C(N)=O)NC(=O)[C@H](CC(=O)O)NC(=O)CNC1=O` [drawing 18] ({CH2CO}-[dY]RGDC[dOrn]-NH2; thioether N-5), the PBF result is “NORMAL”.

Consider `CC1(C)SCC(=O)N[C@H](Cc2ccc(O)cc2)C(=O)N[C@@H](CCCCN)C(=O)NCC(=O)N[C@@H](CC(=O)O)C(=O)N[C@@H]1C(=O)N[C@@H](CCCNC(=N)N)C(N)=O` [drawing 26] ({CH2CO}-[dY]KGD[Pen]R-NH2; thioether N-5), for which the PBF result is on record as “NORMAL”.

For the compound `N=C(N)NCCC[C@H](NC(=O)[C@@H]1CCCC(=O)N[C@H](Cc2ccc(O)cc2)C(=O)N[C@@H](CCCNC(=N)N)C(=O)NCC(=O)N[C@@H](CC(=O)O)C(=O)N1)C(N)=O` [drawing 28] ([dY]RGD[Aad]R-NH2; lactam N-5), the PBF entry is recorded as “NORMAL”.

For the compound `N=C(N)NCCC[C@@H]1NC(=O)[C@@H](Cc2ccc(O)cc2)NC(=O)CCC[C@@H](C(=O)N[C@@H](CCCCN)C(N)=O)NC(=O)[C@H](CC(=O)O)NC(=O)CNC1=O` [drawing 29] ([dY]RGD[Aad]K-NH2; lactam N-5), the PBF result is given as “NORMAL”.

For `N=C(N)NCCC[C@@H]1NC(=O)[C@@H](Cc2ccc(O)cc2)NC(=O)CSC[C@@H](C(=O)N[C@@H](CCCCN)C(=O)O)NC(=O)[C@H](CC(=O)O)NC(=O)CNC1=O` [drawing 32] ({CH2CO}-[dY]RGDCK-OH; thioether N-5), the PBF entry was “NORMAL”.

The same series, now with this note: rabbit, i.v. bolus .375 mg/kg + 0.009 mg/kg infused over 60 minutes; measured visually.
As for `N=C(N)NCCC[C@@H]1NC(=O)[C@@H](Cc2ccc(O)cc2)NC(=O)C[S+]([O-])C[C@@H](C(=O)O)NC(=O)[C@H](CC(=O)O)NC(=O)CNC1=O` (stereo partly drawn) ([dY]RGD[Cys(O)(CH2CO)]-OH; lactam N-5), the PBF entry is “NORMAL”.

A further series has as its target human platelet rich plasma (PRP) (Homo sapiens, UniProt P05106+P08514). Briefly: In Vitro Human Platelet Aggregation Assay. The class given is cell-based. Conditions: human PRP; read-out: Human Platelet Aggregation IC50. Here is the method:
Platelet aggregation assays are performed in human platelet rich plasma (PRP). Fifty milliliters of whole human blood (9 parts) is drawn on 3.6% sodium citrate (1 part) from a donor who has not taken aspirin or related medications for at least two weeks. The blood is centrifuged at 160×g for 10 minutes at 22° C. and allowed to stand for 5 minutes after which the PRP is decanted. Platelet poor plasma (PPP) is isolated from the remaining blood after centrifugation at 2000×g for 25 minutes. The platelet count of the PRP is diluted to about 300,000 platelets per microliter with PPP.
A 225 μl aliquot of PRP plus 25 μl of either a dilution of the test inhibitor sample or a control (PBS) is incubated for 5 minutes in a Chrono-log Whole Blood Aggregometer at 25° C. An aggregating agent (collagen, 1 μg/ml; U46619, 100 ng/ml; or ADP, 17 μM) is added and the transmission is recorded.
Broadly, the pIC50 is the IC50 on a negative log10 scale, so that one unit is a factor of ten. For `N=C(N)NCCC[C@@H]1NC(=O)[C@@H](Cc2ccc(O)cc2)NC(=O)CSC[C@@H](C(=O)N[C@@H](CCCCN)C(=O)O)NC(=O)[C@H](CC(=O)O)NC(=O)CNC1=O` [7/25, cyclo-S-acetyl-dTyr--Arg--Gly--Asp--Cys--Lys--OH] ({CH2CO}-[dY]RGDCK-OH; thioether N-5), the pIC50 is 6.43.

In the case of “cyclo-S-acetyl-dTyr--Arg--Gly--Asp--Cys--Tyr--Arg--NH2 [7/43]”, the negative-log IC50 (pIC50) is 6.46.

The record behind these values is patent US5493007A, “Platelet aggregation inhibitors having high specificity for GPIIBIIIA” (Genentech, Inc., priority 1994, dated 1996).
